Values of other authors as cited in patent US12697342B2, “Non-surgical prevention of boar taint and aggressive behavior” (priority 2022, dated 2026).

System: Sertoli cells
Conditions: young male pigs

Row | SMILES | duration of Sertoli cell proliferation and testis size
1 | N#Cc1ccc(C(c2ccc(C#N)cc2)n2cncn2)cc1 [Letrozole] | highly significant increase
2 | C[C@]12CC[C@@H]3c4ccc(O)cc4C[C@@H](CCCCCCCCC[S+]([O-])CCCC(F)(F)C(F)(F)F)[C@H]3[C@@H]1CC[C@@H]2O (some centres unmarked) [ICI 182,780] | highly significant increase
